{"source": "patent US20130266636A1", "about": "“METHODS FOR BLOCKING CELL PROLIFERATION AND TREATING DISEASES AND CONDITIONS RESPONSIVE TO CELL GROWTH INHIBITION” (THE REGENTS OF THE UNIVERSITY OF CALIFORNIA, priority 2010, published 2013)", "key": {"[1]": {"tested_on": "XPA-1-RFP pancreatic tumor xenografts", "assay": "Orthotopic XPA-1-RFP pancreatic tumor xenograft in Nestin-GFP mice", "type": "in vivo", "protocol": "FIG. 16 and FIG. 17 illustrate data showing that KG5 inhibits pancreatic tumor growth and reduces tumor vascular density, as described in Murphy (2010) Proc. Natl. Acad. Sci. USA, Mar. 2, 2010; vol. 107(9): 4299-4304. FIGS. 16A and 16B, and FIGS. 17A and 17B: Real-time fluorescent imaging of XPA-1-RFP pancreatic tumor xenografts in the pancreas of Nestin-GFP mice (n=5/group) treated with either vehicle (FIG. 16A, 17A) or KG5 (FIG. 16B, 17B) (50 mg/kg, i.p., bid). Drug treatments were started 3 days after surgical orthotopic implantation (SOT) of XPA-1-RFP tumors, and tumor progression was monitored every 3 days by whole-animal imaging (Scale bar, 10 mm). FIG. 17(C) graphically illustrates a plot of tumor surface area over time for the vehicle- and KG5-treated groups, Tumor surface area was calculated by adding the total pixels of both the ventral and lateral images of the tumor. *P=0.034. FIG. 17(D) graphically illustrates average body weight of the mice measured each day of whole-animal imaging described in A and B. FIG. 16(C) graphically illustrates total weights of resected primary tumors on day 15 post-SOT. *P=0.022.\nAnimals were systemically treated with either vehicle or KG5 (50 mg/kg, bid) beginning 3 days after surgical orthotopic implantation (SOI) of a tumor fragment. Tumor growth was monitored noninvasively by whole-body imaging. […] Animals treated with KG5 produced an average tumor weight of 26.7 mg compared to 74.1 mg for vehicle-treated animals (FIG. 16C). At this time, GFP-labeled blood vessels were imaged and tumor-associated blood vessel density was quantified by measuring the ratio of total blood vessel length to tumor volume. […] The mean vessel length/tumor volume was 2.5 mm/mm^3 compared to 0.2 mm/mm^3 for vehicle and KG5, respectively.\nFIG. 18 further illustrates data from the studies of FIG. 16 and FIG. 17: FIG. 18(A) and FIG. 18(B) illustrate representative fluorescent images of endothelial GFP expression (GFP expression driven by the Nestin promoter) within the XPA-1-RFP tumors after resection. Images were taken 15 days post-SOI (Scale bar, 200 μm); FIG. 18(C) illustrates a plot of tumor vessel density from images acquired as in E, Blood vessels imaged as in E were converted to length (mm) and normalized to tumor volume (mm^3). *P=0.01."}, "p-MEK and p-ERK": {"tested_on": "p-MEK and p-ERK", "details": "cited from earlier work"}, "Plk1": {"tested_on": "Plk1", "assay": "Plk1 activity in tumor cells arrested in pro-metaphase", "type": "cell-based, human", "details": "compared to cells arrested with nocodazole or paclitaxel", "text": "FIG. 46. CRAF regulates Plk1 activity and localization. FIG. 46(a) Plk1 kinase activity assay performed in WT and CRAF−/− MEFs. Error bars represent s.d. (n=3); * two tailed p value=0.029 using Mann Whitney U test. FIG. 46(b) Immunoblot analysis of XPA-1 cells asynchronous or arrested in mitosis by treatment with KG5, nocodazole or paclitaxel (referred to as Ncdzl and Ptxl respectively). pPlk1 refers to phospho-T210 Plk1 and pHH3 refers to phospho-Histone H3. Data are representative of three independent experiments. FIG. 46(c) Plk1 kinase activity assay performed in HCT-116 cells treated with nocodazole or nocodazole and KG5. Error bars represent s.d. ([…]); * two tailed p value=0.002 using Mann Whitney U test. FIG. 46(d) Immunoblot analysis of CenpF immunoprecipitates from HCT-116 cells untreated or treated with KG5. Data are representative of three independent experiments. FIG. 46(e) Confocal microscopy images of XPA-1 cell at prophase (upper panel), pro-metaphase control untreated (middle panel) or treated with KG5 (lower panel). Cells were stained for phospho-T210 Plk1 (in green), a tubulin (in red) and DNA (TOPRO-3™ in blue). […]\nPlk1 enzymatic activity in cell lysates from WT, CRAF−/− MEFs, HCT-116 cells expressing WT or S338D CRAF and HCT-116 cells treated with the allosteric RAF inhibitor KG5 was determined using the Plk1 kinase kit from MBL and following the manufacturer's protocol."}, "[2]": {"tested_on": "U-87 human glioblastoma cells", "assay": "Cells in pro-metaphase in orthotopic brain tumor xenografts", "type": "in vivo, mice", "details": "systemic KG5 50 mg/Kg, after three days", "protocol": "Phosphorylation of CRAF on serine 338 has been linked to cell proliferation survival as well as breast cancer progression^9-11,14-16. To determine whether KG5 could similarly regulate phospho-5338 RAF in tumors, we analyzed orthotopic […] and brain tumor tissues for the presence of this marker before or after systemic delivery of the drug.\nTumors were generated by injection of RFP-labeled U-87 human glioblastoma cells (10^5 tumorcells in 2 μl of sterile PBS) into the brain of 6-8 week old female nude mice. Tumors were established for 3 weeks before beginning dosing. Mice were dosed with vehicle (10% HS-15) or 50 mg/kg KG5 (i.p. bid) for 3 days prior to harvest. Alternatively, U-87 cells stably expressing WT CRAF or the phospho-mimetic S338D CRAF mutant were injected into the brain of 6-8 week old female nude mice. Brains were harvested at day 15 and fluorescence images recorded using the IVIS-200™ imaging system (Xenogen Corp., Hopkinton, Mass.). Tumor sizes were measured as a function of fluorescence intensity using the ROI function of the IVIS Living Image Software. […]"}}, "data": [{"smiles": "CSc1nc(N)cc(Oc2ccc(-c3nnc(Nc4cccc(C(F)(F)F)c4)[nH]3)cc2)n1", "note": "[KG5]", "values": [{"measurement": "body weight", "setting": "[1]; 50 mg/kg bid", "result": "no weight loss"}, {"measurement": "signs of lethargy", "setting": "[1]; 50 mg/kg bid", "result": "did not demonstrate any signs of lethargy"}, {"measurement": "tumor growth by whole-body imaging", "setting": "[1]; 50 mg/kg bid, 12 days post-SOI, compared to vehicle", "result": "completely suppressed"}, {"measurement": "average tumor weight", "setting": "[1]; 50 mg/kg i.p. bid from 3 days after SOI, resected primary tumors day 15 post-SOI, vehicle 74.1 mg", "result": 26.7, "unit": "mg"}, {"measurement": "mean vessel length/tumor volume", "setting": "[1]; 50 mg/kg i.p. bid, 15 days post-SOI, vehicle 2.5 mm/mm^3", "result": 0.2, "unit": "mm/mm^3"}, {"measurement": "p-MEK and p-ERK", "setting": "p-MEK and p-ERK; bFGF- or VEGF-stimulated endothelial cells", "result": "blocked"}, {"measurement": "bFGF- or VEGF-mediated phosphorylation of MEK on S217/S221", "setting": "p-MEK and p-ERK; endothelial cells", "result": "inhibited"}, {"measurement": "bFGF- or VEGF-mediated phosphorylation of MEK on S298", "setting": "p-MEK and p-ERK; endothelial cells", "result": "not on S298"}, {"measurement": "Plk1 activity", "setting": "Plk1", "result": "decreased Plk1 activity"}, {"measurement": "cells at pro-metaphase in orthotopic brain tumor tissues", "setting": "[2]", "result": "accumulation of cells at pro-metaphase"}]}]}
